Activity calls are given as the source filed them. No cut-off for these calls is given here.

The first experiment is filed under the species Mus musculus. Description: Tested for ability to induce meiosis in immature mouse oocytes by measuring the rate of germinal vesicle breakdown (GVB) relative to FF-MAS; na means Not active. It is filed as functional.
For `C[C@@H](CO)CCC[C@@H](C)[C@H]1CC=C2C3=C(CC[C@@]21C)[C@@]1(C)CC[C@H](O)C(C)(C)[C@@H]1CC3`, the Relative activity entry was “inactive”.

Regarding `C[C@@H](CO)CCC[C@@H](C)[C@H]1CCC2C3CC=C4C[C@@H](O)CC[C@]4(C)C3CC[C@@]21C` (stereo partly drawn), the Relative activity entry is “inactive”.

For the next experiment, the species on record is Mus musculus. Description: Tested for ability to induce meiosis in immature mouse oocytes by measuring the rate of germinal vesicle breakdown (GVB) relative to FF-MAS. It counts as functional. The arrangement: concentration or dose not given beside the values.
In the case of `C[C@@H](CO)CCC[C@@H](C)[C@H]1CCC2C3=CC=C4C(C)(C)[C@@H](O)CC[C@]4(C)C3CC[C@@]21C` (stereo partly drawn), the Relative activity is given as 89%.

For the molecule `CC(CO)CCC[C@@H](C)[C@H]1CC[C@H]2[C@@H]3CC=C4C(C)(C)[C@@H](O)CC[C@]4(C)[C@H]3CC[C@]12C` (single isomer, unassigned), the Relative activity is given as 71%.

For the molecule `C[C@@H](CI)CCC[C@@H](C)[C@H]1CC=C2C3=C(CC[C@@]21C)[C@@]1(C)CC[C@H](O)C(C)(C)[C@@H]1CC3`, the Relative activity stood at 85%.

On to `C[C@@H](CCl)CCC[C@@H](C)[C@H]1CC=C2C3=C(CC[C@@]21C)[C@@]1(C)CC[C@H](O)C(C)(C)[C@@H]1CC3`, for which the Relative activity was determined as 87%.

Take `CC(C)CCC[C@@H](C)[C@H]1[C@@H](O)CC2C3=CC=C4C(C)(C)[C@@H](O)CC[C@]4(C)C3CC[C@@]21C` (stereo partly drawn): the Relative activity turned out to be 90%.

`CC(C)CCC[C@@H](C)[C@H]1[C@@H](O)CC2C3CC=C4C(C)(C)[C@@H](O)CC[C@]4(C)C3CC[C@@]21C` (stereo partly drawn): the Relative activity is 113%.

Consider `CC(C)CCC[C@@H](C)[C@H]1[C@@H](O)CC2C3CC=C4CCCC[C@]4(C)C3CC[C@@]21C` (stereo partly drawn), for which the Relative activity was determined as 87%.

Consider `C=C(C)CCC[C@@H](C)[C@H]1CC=C2C3=C(CC[C@@]21C)[C@@]1(C)CC[C@H](O)C(C)(C)[C@@H]1CC3`, for which the Relative activity is on record as 106%.

For the molecule `CC(C)CCC[C@@H](C)[C@H]1[C@@H](O[Si](C)(C)C(C)(C)C)CC2C3CC=C4C[C@@H](O)CC[C@]4(C)C3CC[C@@]21C` (stereo partly drawn), the Relative activity amounted to 43%.

Turning to `C[C@H](CCCC(C)(C)Cl)[C@H]1CC=C2C3=C(CC[C@@]21C)[C@@]1(C)CC[C@H](O)C(C)(C)[C@@H]1CC3`, the Relative activity turned out to be 62%.

A further experiment is filed under the species Mus musculus. Description: Tested for ability to induce meiosis in immature mouse oocytes by measuring the rate of germinal vesicle breakdown (GVB). It is filed as functional.
For `CC(C)=CCC[C@@H](C)[C@H]1CC=C2C3=C(CC[C@@]21C)[C@@]1(C)CC[C@H](O)C(C)(C)[C@@H]1CC3`, the Activity is recorded as 100%.

The record behind these values is ChEMBL document CHEMBL1135214, “Meiosis activating sterols derived from diosgenin” (2002).
